The source of these data is US10654890B2, “Cyclic peptide derivative, method for preparing same and composition thereof” (priority 2014, dated 2020).

Molecules are shown by their SMILES.

Test [1] has as its system human liver cancer cells (HepG2). As to the kind of experiment: Cell proliferation test, human liver cancer cells. Type of test: cell-based. The settings on record: 2.5 μM and 25 μM, FIG. 10. As to the method: To see whether or not the astrocyte proliferation accelerating activity of the cyclic peptide derivative is a specific proliferative activity that is limited only to an astrocyte or it is based on a common cell proliferative activity, investigations were made by using normal human dermal fibroblasts (NHDF), human liver cancer cells (HepG2), and human leukemia cells (K562).
Seeding of each cell on a 96 well plate was carried out by adding 100 μl of a cell suspension in which normal human dermal fibroblasts are prepared at 2.5×10^4 cells/ml or human liver cancer cells and human leukemia cells are prepared at 5×10^4 cells/ml. Since the cyclic peptide derivative is added after dissolving it in PBS (−), only PBS (−) was added as a control.

The subject of test [2] is VGF gene. As to the kind of experiment: VGF gene expression in culture astrocyte (real time PCR). Type of test: cell-based, mouse. Particulars: 25 μM; from 8 hours to 24 hours after the addition; p<0.05 vs before the addition; calibrated to GAPDH. As to the method:
By adding the cyclic peptide derivative of 25 μM to an astrocyte of the secondary subculture, the influence on expression of the gene of NGF, GDNF, VFGF-A, BDNF, and VGF as a representative neurotrophic factor was determined over time.
Except that a cell suspension of an astrocyte of the secondary subculture was prepared to have cell concentration of 3×10^5 cells/ml and the time for exposing the astrocyte to the above 25 μM cyclic peptide derivative was set at 0, 1, 2, 4, 8, 12, and 24 hours, the astrocyte was cultured in the same order as above <6>. As a control group, LG-D-MEM (0% FBS) not added with any cyclic peptide derivative was used.
Each astrocyte which has been exposed to the cyclic peptide derivative during each time described above was collected, and then, by using RNeasy Mini Kit (QIAGEN), extraction and purification of total RNA were carried out. The extracted total RNA was quantified by using Nano Photometer (IMPLEN). For the reverse transcription reaction, cDNA was synthesized by reacting 500 ng of total RNA with PrimeScript RT Master Mix (TaKaRa) at 37° C. for 15 minutes using GeneAmp PCR System 9600 (PERKIN ELMER), and the reaction was terminated by heating for 5 seconds at 85° C. […]
For orientation: In qPCR the cycle at which signal appears reflects the starting amount.

Regarding `CCC1(C)Oc2cc(ccc2O)C(O)C(NC)C(=O)NC(C(C)C)C(=O)NC1C(=O)NC(CCC(=O)O)C(=O)O` (centres unmarked) [cyclic peptide derivative], the “inhibitory activity on cell proliferation” value in test [1] was “a strong inhibitory activity on cell proliferation was observed”. The “expression of the gene of VGF” value in test [2] is given as “increased”.
